The subject of one assay is Phakopsora pachyrhizi. Kind of assay: Phakopsora pachyrhizi Test on Soybean (preventive activity, greenhouse). It is filed as in vivo. Conditions: preventive spray on young Soybean plants, inoculated one day after treatment, rated 3, 7, 10 and 15 days after application, read-out: Efficacy (% control), disease severity compared to the untreated check. The gist of the method:
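Preventive greenhouse test: young soybean plants sprayed with compound in 2% DMSO/acetone plus emulsified water at stated rates, inoculated one day later with 2×10^5 P. pachyrhizi conidia, held at 22-24° C and 80-90% RH. Disease severity (0-100%) rated 3, 7, 10 and 15 days after application; % control relative to untreated plants.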

The next assay concerns Alternaria solani. The assay can be described thus: Alternaria solani (Early Blight of Tomato/Potato): radial mycelial growth on potato dextrose agar. Conditions: 168 h, potato dextrose agar, 25° C., 60% relative humidity, seven days, read-out: control (radial growth compared to the untreated check). It is filed as cell-based. The protocol:
Compounds were dissolved in 0.3% dimethyl sulfoxide and then added to potato dextrose agar medium just prior to dispensing it into petri dishes. 5 mL medium with the compound in the desired concentration was dispensed into 60 mm sterile petri-plates. After solidification each plate was seeded with a 5 mm size mycelial disc taken from the periphery of an actively growing virulent culture plate. Plates were incubated in growth chambers at 25° C. temperature and 60% relative humidity for seven days and then the radial growth was measured and compared to that of the untreated control. Compounds 2 85 89 92 94 108 113 114 131 138 142 143

For another assay, the system named is Colletotrichum capsici. The assay can be described thus: Colletotrichum capsici (Anthracnose): radial mycelial growth on potato dextrose agar. It is filed as cell-based. Conditions: Colletotrichum truncatum, 168 h, 25° C., 60% relative humidity, seven days, read-out: control (radial growth compared to the untreated check).
In the next assay the test system is Pyricularia Oryzae. Kind of assay: microbe, parasite or virus in culture. It is filed as cell-based. Conditions: 168 h, read-out: control (radial growth compared to the untreated check).

For `O=C(Cc1ccccc1)NCc1cn2cc(-c3noc(C(F)(F)F)n3)ccc2n1` [Compound 94, 2-phenyl-N-((6-(5-(trifluoromethyl)-1,2,4-oxadiazol-3-yl)imidazo[1,2-a]pyridin-2-yl)methyl)acetamide], the pest or weed control at 500 ppm in the assay on Phakopsora pachyrhizi was at least 70%. Besides, the inhibition of growth at 300 ppm in the assay with Alternaria solani is at least 70%. Turning to `CS(=O)(=NC(=O)Cc1cn2cc(-c3noc(C(F)(F)F)n3)ccc2n1)c1cccc(Cl)c1` (stereo not shown) [Compound 149, N-((3-chlorophenyl)(methyl)(oxo)-λ^6-sulfaneylidene)-2-(6-(5-(trifluoromethyl)-1,2,4-oxadiazol-3-yl)imidazo[1,2-a]pyridin-2-yl)acetamide], the inhibition of growth at 300 ppm in the assay on Alternaria solani is at least 70%.

Take `FC(F)(F)c1nc(-c2ccn3cc(CSc4ccccc4)nc3c2)no1` [Compound 50, 3-(2-((phenylthio)methyl)imidazo[1,2-a]pyridin-7-yl)-5-(trifluoromethyl)-1,2,4-oxadiazole]: in the assay on Colletotrichum capsici, the inhibition of growth at 300 ppm was at least 70%. As to `FC(F)(F)c1nc(-c2ccc3nc(CSCc4ccccc4)cn3c2)no1` [Compound 108, 3-(2-((benzylthio)methyl)imidazo[1,2-a]pyridin-6-yl)-5-(trifluoromethyl)-1,2,4-oxadiazole], the inhibition of growth at 300 ppm in the assay with Alternaria solani was at least 70%.

As for `COc1ccnc(S(C)(=O)=NC(=O)Cc2cn3cc(-c4noc(C(F)(F)F)n4)ccc3n2)c1` (stereo not shown) [Compound 146, N-((4-methoxypyridin-2-yl)(methyl)(oxo)-λ^6-sulfaneylidene)-2-(6-(5-(trifluoromethyl)-1,2,4-oxadiazol-3-yl)imidazo[1,2-a]pyridin-2-yl)acetamide], the inhibition of growth at 300 ppm in the assay with Pyricularia Oryzae and in the assay on Alternaria solani was at least 70% in each case.

Take `COCCS(=O)(=NC(=O)Cc1cn2cc(-c3noc(C(F)(F)F)n3)ccc2n1)c1ccc(Cl)cc1` (stereo not shown) [Compound 136, N-((4-chlorophenyl)(2-methoxyethyl)(oxo)-λ^6-sulfaneylidene)-2-(6-(5-(trifluoromethyl)-1,2,4-oxadiazol-3-yl)imidazo[1,2-a]pyridin-2-yl)acetamide]: the inhibition of growth at 300 ppm with Pyricularia Oryzae is at least 70%.

`O=C(NCc1cn2cc(-c3noc(C(F)(F)F)n3)ccc2n1)c1ccc(OC(F)(F)F)cc1` [Compound 89, 4-(trifluoromethoxy)-N-((6-(5-(trifluoromethyl)-1,2,4-oxadiazol-3-yl)imidazo[1,2-a]pyridin-2-yl)methyl)benzamide]: the pest or weed control at 500 ppm in the assay on Phakopsora pachyrhizi was at least 70%. Besides, the inhibition of growth at 300 ppm in the assay with Alternaria solani was at least 70%. Regarding `CS(=O)(=NC(=O)Cc1cn2cc(-c3noc(C(F)(F)F)n3)ccc2n1)c1cccc(F)c1` (stereo not shown) [Compound 131, N-((3-fluorophenyl)(methyl)(oxo)-λ^6-sulfaneylidene)-2-(6-(5-(trifluoromethyl)-1,2,4-oxadiazol-3-yl)imidazo[1,2-a]pyridin-2-yl)acetamide], the inhibition of growth at 300 ppm in the assay on Alternaria solani was at least 70%. `O=C(NCc1cn2cc(-c3noc(C(F)(F)F)n3)ccc2n1)c1ccccn1` [Compound 87, N-((6-(5-(trifluoromethyl)-1,2,4-oxadiazol-3-yl)imidazo[1,2-a]pyridin-2-yl)methyl)picolinamide]: the pest or weed control at 500 ppm in the assay with Phakopsora pachyrhizi is at least 70%. For the same compound, in the assay with Pyricularia Oryzae, the inhibition of growth at 300 ppm was at least 70%. `FC(F)(F)c1nc(-c2ccc3nc(CSC4CCCC4)cn3c2)no1` [Compound 113, 3-(2-((cyclopentylthio)methyl)imidazo[1,2-a]pyridin-6-yl)-5-(trifluoromethyl)-1,2,4-oxadiazole]: the inhibition of growth at 300 ppm in the assay with Pyricularia Oryzae and with Alternaria solani was at least 70% in each case.

As to `CS(=O)(=NC(=O)Cc1cn2cc(-c3noc(C(F)(F)F)n3)ccc2n1)c1cc(Cl)cc(Cl)c1` (stereo not shown) [Compound 140, N-((3,5-dichlorophenyl)(methyl)(oxo)-λ^6-sulfaneylidene)-2-(6-(5-(trifluoromethyl)-1,2,4-oxadiazol-3-yl)imidazo[1,2-a]pyridin-2-yl)acetamide], the inhibition of growth at 300 ppm with Pyricularia Oryzae is at least 70%. Consider `CS(=O)(=NC(=O)Cc1cn2cc(-c3noc(C(F)(F)F)n3)ccc2n1)c1ccc(Cl)c(Cl)c1` (stereo not shown) [Compound 143, N-((3,4-dichlorophenyl)(methyl)(oxo)-λ^6-sulfaneylidene)-2-(6-(5-(trifluoromethyl)-1,2,4-oxadiazol-3-yl)imidazo[1,2-a]pyridin-2-yl)acetamide], for which the inhibition of growth at 300 ppm in the assay on Alternaria solani was at least 70%. As to `O=C(c1cn2ccc(-c3noc(C(F)(F)F)n3)cc2n1)N1CCC1` [Compound 33, azetidin-1-yl(7-(5-(trifluoromethyl)-1,2,4-oxadiazol-3-yl)imidazo[1,2-a]pyridin-2-yl)methanone], in the assay with Phakopsora pachyrhizi, the pest or weed control at 500 ppm is at least 70%. Further, the inhibition of growth at 300 ppm in the assay with Pyricularia Oryzae was at least 70%. Take `CN(C(=O)c1cn2ccc(-c3noc(C(F)(F)F)n3)cc2n1)c1ccc(Cl)cc1` [Compound 12, N-(4-chlorophenyl)-N-methyl-7-(5-(trifluoromethyl)-1,2,4-oxadiazol-3-yl)imidazo[1,2-a]pyridine-2-carboxamide]: the pest or weed control at 500 ppm in the assay on Phakopsora pachyrhizi is at least 70%. In addition, the inhibition of growth at 300 ppm in the assay on Pyricularia Oryzae was at least 70%. As for `CS(=O)(=NC(=O)Cc1cn2cc(-c3noc(C(F)(F)F)n3)ccc2n1)c1ccc(Br)cc1` (stereo not shown) [Compound 142, N-((4-bromophenyl)(methyl)(oxo)-λ^6-sulfaneylidene)-2-(6-(5-(trifluoromethyl)-1,2,4-oxadiazol-3-yl)imidazo[1,2-a]pyridin-2-yl)acetamide], the inhibition of growth at 300 ppm in the assay on Pyricularia Oryzae and in the assay with Alternaria solani was at least 70% each time.

With `FC(F)(F)c1nc(-c2ccc3nc(CSc4cccc(Cl)c4)cn3c2)no1` [Compound 103, 3-(2-(((3-chlorophenyl)thio)methyl)imidazo[1,2-a]pyridin-6-yl)-5-(trifluoromethyl)-1,2,4-oxadiazole], the pest or weed control at 500 ppm with Phakopsora pachyrhizi was at least 70%. Moreover, the inhibition of growth at 300 ppm with Pyricularia Oryzae is at least 70%. As for `O=C(NCc1cn2cc(-c3noc(C(F)(F)F)n3)ccc2n1)c1cocn1` [Compound 92, N-((6-(5-(trifluoromethyl)-1,2,4-oxadiazol-3-yl)imidazo[1,2-a]pyridin-2-yl)methyl)oxazole-4-carboxamide], the inhibition of growth at 300 ppm in the assay with Pyricularia Oryzae and in the assay with Alternaria solani was at least 70% in each case. As to `O=C(NCc1cn2cc(-c3noc(C(F)(F)F)n3)ccc2n1)c1cccc(Cl)c1` [Compound 85, 3-chloro-N-((6-(5-(trifluoromethyl)-1,2,4-oxadiazol-3-yl)imidazo[1,2-a]pyridin-2-yl)methyl)benzamide], the pest or weed control at 500 ppm in the assay on Phakopsora pachyrhizi is at least 70%. The inhibition of growth at 300 ppm with Alternaria solani was at least 70%. Regarding `COc1ccc(NC(=O)c2cn3ccc(-c4noc(C(F)(F)F)n4)cc3n2)cc1` [Compound 2, N-(4-methoxyphenyl)-7-(5-(trifluoromethyl)-1,2,4-oxadiazol-3-yl)imidazo[1,2-a]pyridine-2-carboxamide], the pest or weed control at 500 ppm in the assay with Phakopsora pachyrhizi is at least 70%. Further, the inhibition of growth at 300 ppm in the assay with Alternaria solani is at least 70%.

`Cc1ccccc1S(C)(=O)=NC(=O)Cc1cn2cc(-c3noc(C(F)(F)F)n3)ccc2n1` (stereo not shown) [Compound 148, N-(methyl(oxo)(o-tolyl)-λ^6-sulfaneylidene)-2-(6-(5-(trifluoromethyl)-1,2,4-oxadiazol-3-yl)imidazo[1,2-a]pyridin-2-yl)acetamide]: the inhibition of growth at 300 ppm with Alternaria solani is at least 70%. For `O=S(=O)(Cc1cn2cc(-c3noc(C(F)(F)F)n3)ccc2n1)c1ccc(Cl)c(Cl)c1` [Compound 117, 3-(2-(((3,4-dichlorophenyl)sulfonyl)methyl)imidazo[1,2-a]pyridin-6-yl)-5-(trifluoromethyl)-1,2,4-oxadiazole], in the assay on Colletotrichum capsici, the inhibition of growth at 300 ppm is at least 70%. For the compound `FC(F)(F)c1nc(-c2ccc3nc(CSC4CCCCC4)cn3c2)no1` [Compound 114, 3-(2-((cyclohexylthio)methyl)imidazo[1,2-a]pyridin-6-yl)-5-(trifluoromethyl)-1,2,4-oxadiazole], the inhibition of growth at 300 ppm in the assay on Pyricularia Oryzae and with Alternaria solani was at least 70% each time. Take `CS(=O)(Cc1cn2ccc(-c3noc(C(F)(F)F)n3)cc2n1)=NC(=O)c1ccccc1C(F)(F)F` (stereo not shown) [Compound 161, N-(methyl(oxo)((7-(5-(trifluoromethyl)-1,2,4-oxadiazol-3-yl)imidazo[1,2-a]pyridin-2-yl)methyl)-λ^6-sulfanylidene)-2-(trifluoromethyl)benzamide]: the inhibition of growth at 300 ppm with Pyricularia Oryzae is at least 70%.

With `COc1ccc(S(C)(=O)=NC(=O)Cc2cn3cc(-c4noc(C(F)(F)F)n4)ccc3n2)cc1` (stereo not shown) [Compound 138, N-((4-methoxyphenyl)(methyl)(oxo)-λ^6-sulfaneylidene)-2-(6-(5-(trifluoromethyl)-1,2,4-oxadiazol-3-yl)imidazo[1,2-a]pyridin-2-yl)acetamide], the inhibition of growth at 300 ppm in the assay on Pyricularia Oryzae and with Alternaria solani was at least 70% throughout. On to `FC(F)(F)c1nc(-c2ccc3nc(CSc4ccccc4)cn3c2)no1` [Compound 101, 3-(2-((phenylthio)methyl)imidazo[1,2-a]pyridin-6-yl)-5-(trifluoromethyl)-1,2,4-oxadiazole], for which the pest or weed control at 500 ppm with Phakopsora pachyrhizi is at least 70%. `FC(F)(F)c1nc(-c2ccc3nc(CSc4ccc(Cl)c(Cl)c4)cn3c2)no1` [Compound 110, 3-(2-(((3,4-dichlorophenyl)thio)methyl)imidazo[1,2-a]pyridin-6-yl)-5-(trifluoromethyl)-1,2,4-oxadiazole]: the pest or weed control at 500 ppm in the assay with Phakopsora pachyrhizi is at least 70%.

Values taken from US20220151236A1, “NOVEL OXADIAZOLE COMPOUNDS FOR CONTROLLING OR PREVENTING PHYTOPATHOGENIC FUNGI” (PI INDUSTRIES LTD., priority 2019, published 2022).
